In patent EP1054892B1, “AZOLE PEPTIDOMIMETICS AS THROMBIN RECEPTOR ANTAGONISTS” (Ortho-McNeil Pharmaceutical, Inc., priority 1998, dated 1999):
Numbered stars: 1 amine (or outer) side, 2 acyl side, 3 side chain; on linkers, the order of the positions; unused ones are H or OH. Square brackets hold non-standard residues; d marks the D form. Peptide text beside a SMILES is read from it. Phe(4-F)ψ(2,4-Thz) = O=C(c1csc([C@H](Cc2ccc(F)cc2)N[*:1])n1)[*:2]; hArg = N=C(N)NCCCC[C@H](N)C(=O)O; Cha = N[C@@H](CC1CCCCC1)C(=O)O; Sar = CNCC(=O)O

What was measured:
gel-filtered platelets [1] = assay: In vitro inhibition of thrombin-induced gel-filtered platelet aggregation; assay type: cell-based; conditions: agonist thrombin, gel-filtered human platelets, read-out: Platelet Aggregation** IC50 Thr*
Experimental: IN VITRO INHIBITION OF THROMBIN-INDUCED GEL-FILTERED PLATELET AGGREGATION ASSAY.
The percentage of platelet aggregation is calculated as an increase in light transmission of compound-treated platelet concentrate vs. control-treated platelet concentrate. Human blood is obtained from drug free, normal donors in tubes containing 0.13 M sodium citrate. Platelet rich plasma (PRP) is collected by centrifugation of whole blood at 200 x g for 10 min at 25°C. The PRP (5 mL) is gel filtered through Sepharose 2B (bed volume 50 mL), and the platelet count is adjusted to 2x10^7 platelets per sample. The following constituents are added to a siliconized cuvette: concentrated platelet filtrate and Tyrode's buffer (0.14 M NaCI, 0.0027 M KCI, 0.012 M NaHCO3, 0.76 mM Na2HPO4, 0.0055 M glucose, 2 mg/mL BSA and 5.0 mM HEPES @ pH 7.4) in an amount equal to 350 µl, 50 µl of 20 mM calcium and 50 µl of the test compound. Aggregation is monitored in a BIODATA aggregometer for the 3 min following the addition of agonist (thrombin 50 µl of 1 unit/mL).
The table contains IC50 values (µM) of the compounds in a thrombin receptor binding assay, and IC50 values (µM) against platelet aggregation stimulated by two agonists, thrombin or SFLLRN-NH2 (TRAP).
* µM ** Thrombin-induced aggregation of gel-filtered platelets in µM.

gel-filtered platelets [2] = assay: In vitro inhibition of SFLLRN-NH2 (TRAP)-stimulated gel-filtered platelet aggregation; assay type: cell-based; conditions: agonist SFLLRN-NH2 (TRAP), gel-filtered human platelets
thrombin receptor = target: T1, thrombin receptor (Homo sapiens, UniProt P25116); assay: In vitro thrombin receptor binding assay (CHRF membranes, tritiated 721-40); conditions: displacement of tritiated 721-40 (Ser-pFPhe-Har-Leu-Har-Lys-Tyr-NH2), read-out: Thr Receptor Binding IC50*
T1 construct: CHRF membranes (Jones, Biochim. Biophys. Acta 1992, 1136, 272) are thawed from -70°C; endogenous in cells; host or cells: CHRF cell membranes
T1 sequence (P25116 22-425): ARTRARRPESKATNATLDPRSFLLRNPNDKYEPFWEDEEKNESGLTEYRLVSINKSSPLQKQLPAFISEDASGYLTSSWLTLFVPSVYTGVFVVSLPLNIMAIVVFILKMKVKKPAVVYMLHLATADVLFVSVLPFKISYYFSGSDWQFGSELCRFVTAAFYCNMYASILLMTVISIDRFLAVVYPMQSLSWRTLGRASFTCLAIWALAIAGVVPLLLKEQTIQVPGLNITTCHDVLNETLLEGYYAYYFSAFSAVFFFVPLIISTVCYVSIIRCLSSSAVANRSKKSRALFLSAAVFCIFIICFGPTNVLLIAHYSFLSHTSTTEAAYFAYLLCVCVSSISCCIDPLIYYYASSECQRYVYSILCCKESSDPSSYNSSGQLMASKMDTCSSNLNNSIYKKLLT
Experimental: IN VITRO THROMBIN RECEPTOR BINDING ASSAY.
CHRF membranes (Jones, Biochim. Biophys. Acta 1992, 1136, 272) are thawed from -70°C, centrifuged at maximum speed for 5 min, washed twice with binding buffer (50 mM HEPES containing 5 mM MgCl2 and 0.1% BSA), and re-suspended in binding buffer ([…]). 100 µl of membranes are added to the 24-Wallac plates and delivered to the Tomtech apparatus. In a typical experiment, 6 µl of samples (from a 125 µg/mL intermediary plate, 20%DMSO) and 44 µl buffer are delivered to the plates (final conc. of compounds is 3.7 µg/mL, 0.6% DMSO). Similarly, 6 µl 20%DMSO and 44 µl buffer are delivered to both column 1 (NSB) and column 12 (TB). 10 µl Ser-pFPhe-Har-Leu-Har-Lys-Tyr-NH2 (721-40; 500 µM in deionized water) is added to column 1.50 µl tritiated 721-40 (specific activity 46 Ci/mmol) is added to all the wells. The plates are mixed well for 20 seconds, incubated for 30 min, and then harvested with 10 mM HEPES/138 mM NaCl using the Skatron harvester. The filters (GF/C Brandel FPXLR 296) are presoaked 3 h in 0.5% polyethylenimine in HEPES/0.1 M N-acetylglucosamine) are set in saran wrap and dried for 3 min in the microwave, and placed in sample bags (Wallac 1450-432). 4.5 mL scintillation fluid (Wallac, Betaplate Scint 1205-440) is added. The bags are sealed, placed in filter cassettes (Wallac 1450-104), and analyzed on the microbeta counter. […]

Structure (SMILES)	IC50 (gel-filtered platelets [1]; Platelet)	IC50 (gel-filtered platelets [2]; Platelet)	IC50 (thrombin receptor)	IC50 (gel-filtered platelets [1])	IC50 (gel-filtered platelets [2])
CNCC(=O)N[C@@H](Cc1ccc(F)cc1)c1nc(C(=O)N[C@@H](CC2CCCCC2)C(=O)N[C@@H](CCCNC(=N)N)C(=O)NCc2ccccc2)co1 [Compound 1, 2-[1(S)-Sarcosineamido-2-(4-fluorophenyl)ethyl]oxazole-4-carboxy-cyclohexylalanyl-arginine benzylamide]	25 µM	10 µM	–	–	–
N=C(N)NCCC[C@H](NC(=O)[C@H](CC1CCCCC1)NC(=O)c1coc([C@H](Cc2ccc(F)cc2)NC(=O)CCN)n1)C(=O)NCc1ccccc1 [Compound 2, 2-[1(S)-β-Alanineamido-2-(4-fluorophenyl)ethyl]oxazole-4-carboxycyclohexylalanyl-arginine benzylamide]	10 µM	7 µM	–	–	–
CNCC(=O)N[C@@H](Cc1ccc(F)cc1)c1nc(C(=O)N[C@@H](CC2CCCCC2)C(=O)N[C@@H](CCCNC(=N)N)C(=O)NCCc2ccccc2)cs1 [Compound 3, 2-[1(S)-Sarcosineamido-2-(4-fluorophenyl)ethyl]thiazole-4-carboxycyclohexylalanyl-arginine phenethylamide]	12 µM	0.6 µM	–	–	–
CNCC(=O)N[C@@H](Cc1ccc(F)cc1)c1nc(C(=O)N[C@@H](CC2CCCCC2)C(=O)N[C@@H](CCCCNC(=N)N)C(=O)N[C@@H](Cc2ccccc2)C(N)=O)cs1 [Compound 4] (H-[Sar][Phe(4-F)ψ(2,4-Thz)][Cha][hArg]F-NH2)	45 µM	–	5 µM	–	–
CC[C@H](C)[C@H](N)C(=O)N[C@@H](Cc1ccc(F)cc1)c1nc(C(=O)N[C@@H](CC2CCCCC2)C(=O)N[C@@H](CCCNC(=N)N)C(=O)N[C@@H](Cc2ccccc2)C(N)=O)cs1 [Compound 5] (H-I[Phe(4-F)ψ(2,4-Thz)][Cha]RF-NH2)	43 µM	9 µM	–	–	–
CNCC(=O)N[C@@H](Cc1ccc(F)cc1)c1nc(C(=O)N[C@@H](CCCCN)C(=O)N[C@@H](CCCNC(=N)N)C(=O)NCCc2ccccc2)cs1 [Compound 6, 2-[1(S)-Sarcosineamido-2-(4-fluorophenyl)ethyl]thiazole-4-carboxy-lysyl-arginine phenethylamide]	26 µM	4 µM	–	–	–
CNCC(=O)N[C@@H](Cc1ccc(F)cc1)c1nc(C(=O)N[C@@H](CC2CCCCC2)C(=O)N[C@@H](CCCNC(=N)N)C(=O)NCc2ccccc2)c(C)o1 [Compound 7, 2-[1(S)-Sarcosineamido-2-(4-fluorophenyl)ethyl]-5-methyloxazole-4-carboxy-cyclohexylalanyl-arginine benzylamide]	19 µM	22 µM	–	–	–
Cc1oc(C(Cc2ccc(F)cc2)NC(=O)C(N)Cc2cn(Cc3ccccc3)cn2)nc1C(=O)NC(CC1CCCCC1)C(=O)NC(CCCNC(=N)N)C(=O)NCc1ccccc1 [Compound 8, 2-[1(S)-N(tau)-Benzyl-histidineamido-2-(4-fluorophenyl)ethyl]-5-methyloxazole-4-carboxy-cyclohexylalanyl-arginine benzylamide]	13 µM	5 µM	–	–	–
CC(=O)N[C@@H](Cc1ccc(F)cc1)c1nc(C(=O)N[C@@H](CC2CCCCC2)C(=O)N[C@@H](CCCNC(=N)N)C(=O)NCc2ccccc2)c(C)o1 [Compound 9, 2-[1(S)-Acetamido-2-(4-fluorophenyl)ethyl]-5-methyloxazole-4-carboxy-cyclohexylalanyl-arginine benzylamide]	24 µM	11 µM	–	–	–
Cc1oc([C@H](Cc2ccc(F)cc2)N(C)C)nc1C(=O)N[C@@H](CC1CCCCC1)C(=O)N[C@@H](CCCNC(=N)N)C(=O)NCc1ccccc1 [Compound 10, 2-[1(S)-N,N-Dimethyl-2-(4-fluorophenyl)ethyl]-5-methyloxazole-4-carboxy-cyclohexylalanyl-arginine benzylamide]	–	–	–	11 µM	17 µM
